# Assay results as given in US20180284095A1, “BIOMARKERS ASSOCIATED WITH LSD1 INHIBITORS AND USES THEREOF” (Oryzon Genomics, S.A., priority 2015, published 2018).
# What was measured:
# TUBB3 = assay: Microarray gene expression in brain, spleen and liver of Hsd:Athymic Nude-Foxn1nu mice (Example 7), housekeeping gene; type: in vivo, mouse
# Procedure: (§1) Total RNA was extracted from samples using the RNeasy extraction kit (Qiagen). The quality and concentration of the RNA was analyzed using the Agilent 2100 bioanalyzer and NanoDrop™ ND-1000 (Thermo Scientific). Samples with RNA integrity number (RIN)<6.0 were discarded. Total RNA (0.5 μg) amplification and labelling with Cy3 or Cy5 was carried out using the Eberwein mRNA amplification procedure (Van Gelder et al, Proc Natl Acad Sci USA 1990, 87:1663-1667) employing the MessageAmp™ aRNA amplification kit from Ambion (Applied Biosystems) following the manufacturer's instructions with minor modifications. As hybridization controls, plant mRNAs were transcribed from a plasmid containing the Zea mays Xet (xyloglucan endo-transglycosylase) cDNA and from a plasmid containing the Zea mays Zmmyb42 cDNA, independently prepared Cy3 and Cy5 labelled aRNA from these two RNAs using the Eberwein mRNA amplification procedure (as disclosed in Cerdà et al, Gen Comp Endocrinol 2008, 156:470-481).
# (§2) The Cy3- and Cy5-labelled cRNAs and spikes were combined and hybridized to the microarray described in Example 2.6 for 17 h at 60° C. using Agilent's gaskets G2534-60002, G2534A hybridization chambers and DNA Hybridization Oven G2545A, according to the manufacturer's instructions. More specifically, equal amounts of Cy3 and Cy5 labeled Xet aRNA as well as equal amounts of Cy3 and Cy5 labeled Zmmyb42 aRNA were spiked into each mixture hybridized to the array. Arrays were washed and raw data were obtained using Agilent's DNA Microarray Scanner G2505B and Feature Extraction software (v10.1). The raw fluorescence intensity data were processed using applicant's proprietary software, and consists in the following operations:
# (§3) Data normalization was carried out by an improved version of the nonlinear Q-splines normalization method (Workman et al., Genome Biol 2002, 3(9):research0048.1-0048.16). Normalization results were presented graphically as MA plots, as first described by Dudoit et al (Dudoit et al, Statistica Sinica, 2002, 12:111-139). Each point corresponds to a probe of the DNA array. M values (vertical axis) are the log-differential expression ratios. A values (horizontal axis) are the log-intensities of the spots. M and A are calculated from the Cy5 and Cy3 intensity values as of each spot. The DNA Array data is normalized using an improved version of non-linear Q-Splines normalization described by Workman et al., Genome Biol 2002, 3(9):research0048.1-0048.16. This process is useful to correct the deviation of the M values from the statistical assumption that most of the spots have M=0 in MA plots. The method allows the adjustment of all M values to form a cloud centered at M=0 in all intensity ranges. The data used to calculate the normalization fitting curve is the totality of the raw measurement dataset, excluding the signals for the probes for the spiked-in plant RNA controls and negative controls. In order to be able to normalize properly the data among all the experiments, the probe-set must include an important group of genes that should have no change (M=0) in the experiment. The normalization function is then applied to all the data, including controls.
# (§4) Normalized and log-transformed data were used to calculate log 2 (sample/control) and Fold Change (FC) values. No background subtraction was applied to the signal intensity values during data processing, permitting robust selection of differentially expressed genes with low expression levels at the cost of potential sub-estimation of change when intensity levels are close to the array background level.
# (§5) Powered Compound 3, 4 or 5 was dissolved in a 20% solution of 2-hydroxypropyl-R-cyclodextrin in water at the appropriate concentrations, vortexed and placed in an ultrasonic bath for 5 minutes.
# (§6) Hsd:Athymic Nude-Foxn1nu mice were maintained in air- and temperature-controlled cages with regular supply of water and food. A maximum of 6 mice/cage were raised. […]
# TUBB2C = assay: as above; type: in vivo, mouse
# Procedure: as §1, §2, §3, §4, §5, §6
smiles,measurement,setting,value
"NC(=O)CN[C@H]1C[C@@H]1c1ccc(OCc2ccccc2)cc1 (racemic) [Compound 3, 2-(((trans)-2-(4-(benzyloxy)phenyl)cyclopropyl)amino)acetamide]",Hybridization signal sample_Cy5,"TUBB3; BRAIN, TUBB3, 5 mg/kg",2574.04
same,log2 (sample/control),"TUBB3; BRAIN, TUBB3, 5 mg/kg vs VEH",−0.223
same,Hybridization signal sample_Cy5,"TUBB3; BRAIN, TUBB3, 10 mg/kg",3248.86
same,log2 (sample/control),"TUBB3; BRAIN, TUBB3, 10 mg/kg vs VEH",−0.06283
same,Hybridization signal sample_Cy5,"TUBB3; BRAIN, TUBB3, 20 mg/kg",3078.53
same,log2 (sample/control),"TUBB3; BRAIN, TUBB3, 20 mg/kg vs VEH",−0.0238
same,Hybridization signal sample_Cy5,"TUBB3; BRAIN, TUBB3, 40 mg/kg",3573.76
same,log2 (sample/control),"TUBB3; BRAIN, TUBB3, 40 mg/kg vs VEH",0.02054
same,Hybridization signal sample_Cy5,"TUBB3; LIVER, TUBB3, 5 mg/kg",64.7691
same,log2 (sample/control),"TUBB3; LIVER, TUBB3, 5 mg/kg vs VEH",−0.09742
same,Hybridization signal sample_Cy5,"TUBB3; LIVER, TUBB3, 10 mg/kg",68.7068
same,log2 (sample/control),"TUBB3; LIVER, TUBB3, 10 mg/kg vs VEH",0.02345
same,Hybridization signal sample_Cy5,"TUBB3; LIVER, TUBB3, 20 mg/kg",48.4567
same,log2 (sample/control),"TUBB3; LIVER, TUBB3, 20 mg/kg vs VEH",−0.04225
same,Hybridization signal sample_Cy5,"TUBB3; LIVER, TUBB3, 40 mg/kg",46.9101
same,log2 (sample/control),"TUBB3; LIVER, TUBB3, 40 mg/kg vs VEH",0.01927
same,Hybridization signal sample_Cy5,"TUBB3; SPLEEN, TUBB3, 5 mg/kg",58.6845
same,log2 (sample/control),"TUBB3; SPLEEN, TUBB3, 5 mg/kg vs VEH",−0.02944
same,Hybridization signal sample_Cy5,"TUBB3; SPLEEN, TUBB3, 10 mg/kg",52.6685
same,log2 (sample/control),"TUBB3; SPLEEN, TUBB3, 10 mg/kg vs VEH",−0.02259
same,Hybridization signal sample_Cy5,"TUBB3; SPLEEN, TUBB3, 20 mg/kg",62.5361
same,log2 (sample/control),"TUBB3; SPLEEN, TUBB3, 20 mg/kg vs VEH",−0.1183
same,Hybridization signal sample_Cy5,"TUBB3; SPLEEN, TUBB3, 40 mg/kg",88.3418
same,log2 (sample/control),"TUBB3; SPLEEN, TUBB3, 40 mg/kg vs VEH",0.169
same,Hybridization signal sample_Cy5,"TUBB2C; BRAIN, 5 mg/kg",5903.12
same,log2 (sample/control),"TUBB2C; BRAIN, 5 mg/kg vs VEH",0.09115
same,Hybridization signal sample_Cy5,"TUBB2C; BRAIN, 10 mg/kg",6228.65
same,log2 (sample/control),"TUBB2C; BRAIN, 10 mg/kg vs VEH",−0.008955
same,Hybridization signal sample_Cy5,"TUBB2C; BRAIN, 20 mg/kg",6935.27
same,log2 (sample/control),"TUBB2C; BRAIN, 20 mg/kg vs VEH",0.07289
same,Hybridization signal sample_Cy5,"TUBB2C; BRAIN, 40 mg/kg",7405.34
same,log2 (sample/control),"TUBB2C; BRAIN, 40 mg/kg vs VEH",0.06328
same,Hybridization signal sample_Cy5,"TUBB2C; LIVER, 5 mg/kg",2676.03
same,log2 (sample/control),"TUBB2C; LIVER, 5 mg/kg vs VEH",−0.1194
same,Hybridization signal sample_Cy5,"TUBB2C; LIVER, 10 mg/kg",2301.43
same,log2 (sample/control),"TUBB2C; LIVER, 10 mg/kg vs VEH",−0.2687
same,Hybridization signal sample_Cy5,"TUBB2C; LIVER, 20 mg/kg",2059.18
same,log2 (sample/control),"TUBB2C; LIVER, 20 mg/kg vs VEH",−0.578
same,Hybridization signal sample_Cy5,"TUBB2C; LIVER, 40 mg/kg",1551.2
same,log2 (sample/control),"TUBB2C; LIVER, 40 mg/kg vs VEH",−0.9728
same,Hybridization signal sample_Cy5,"TUBB2C; SPLEEN, 5 mg/kg",6245.92
same,log2 (sample/control),"TUBB2C; SPLEEN, 5 mg/kg vs VEH",−0.05272
same,Hybridization signal sample_Cy5,"TUBB2C; SPLEEN, 10 mg/kg",4019.89
same,log2 (sample/control),"TUBB2C; SPLEEN, 10 mg/kg vs VEH",−0.4863
same,Hybridization signal sample_Cy5,"TUBB2C; SPLEEN, 20 mg/kg",4597.76
same,log2 (sample/control),"TUBB2C; SPLEEN, 20 mg/kg vs VEH",−0.4097
same,Hybridization signal sample_Cy5,"TUBB2C; SPLEEN, 40 mg/kg",8986.8
same,log2 (sample/control),"TUBB2C; SPLEEN, 40 mg/kg vs VEH",−0.9476
